Converted amounts (≈) assume the structure as drawn.
What was measured:
Format in all cases: functional
[1] = tested on: Escherichia coli; experiment: Antibacterial activity against Escherichia coli assessed as zone of inhibition at 2 ug/ml; conditions: read-out: DIZ
[2] = tested on: Mycobacterium tuberculosis; experiment: Antibacterial activity against drug-sensitive 1 ug/ml Mycobacterium tuberculosis clinical isolate 753 assessed as growth inhibition after 7 days by microtiter plate assay; conditions: isolate 753, 168 h
[3] = tested on: Mycobacterium tuberculosis; experiment: Antibacterial activity against drug-sensitive 1 ug/ml Mycobacterium tuberculosis clinical isolate 741 assessed as growth inhibition after 7 days by microtiter plate assay; conditions: isolate 741, 168 h
[4] = tested on: Staphylococcus aureus; experiment: Antibacterial activity against Staphylococcus aureus assessed as growth inhibition after 7 days by microtiter plate assay; conditions: 168 h
[5] = tested on: Salmonella; experiment: Antibacterial activity against Salmonella assessed as zone of inhibition at 2 ug/ml; conditions: read-out: DIZ
[6] = tested on: Mycobacterium tuberculosis; experiment: Antibacterial activity against drug-sensitive 1 ug/ml Mycobacterium tuberculosis clinical isolate 760 assessed as growth inhibition after 7 days by microtiter plate assay; conditions: isolate 760, 168 h
[7] = tested on: Escherichia coli; experiment: Antibacterial activity against duck Escherichia coli assessed as zone of inhibition at 2 ug/ml; conditions: read-out: DIZ
[8] = tested on: Escherichia coli; experiment: Antibacterial activity against duck Escherichia coli assessed as growth inhibition after 7 days by microtiter plate assay; conditions: 168 h
[9] = tested on: Staphylococcus aureus; experiment: Antibacterial activity against Staphylococcus aureus assessed as zone of inhibition at 2 ug/ml; conditions: read-out: DIZ
[10] = tested on: Salmonella; experiment: Antibacterial activity against Salmonella assessed as growth inhibition after 7 days by microtiter plate assay; conditions: 168 h
[11] = tested on: Pseudomonas aeruginosa; experiment: Antibacterial activity against Pseudomonas aeruginosa assessed as zone of inhibition at 2 ug/ml; conditions: read-out: DIZ
[12] = tested on: Mycobacterium tuberculosis; experiment: Antibacterial activity against drug-sensitive 1 ug/ml Mycobacterium tuberculosis clinical isolate 758 assessed as growth inhibition after 7 days by microtiter plate assay; conditions: isolate 758, 168 h
[13] = tested on: Escherichia coli; experiment: Antibacterial activity against Escherichia coli assessed as growth inhibition after 7 days by microtiter plate assay; conditions: 168 h
[14] = tested on: Pseudomonas aeruginosa; experiment: Antibacterial activity against Pseudomonas aeruginosa assessed as growth inhibition after 7 days by microtiter plate assay; conditions: 168 h
[15] = tested on: Mycobacterium tuberculosis; experiment: Antibacterial activity against Mycobacterium tuberculosis H37Rv ATCC 27294 assessed as growth inhibition after 7 days by microtiter plate assay; conditions: H37Rv ATCC 27294, 168 h
[16] = tested on: Mycobacterium tuberculosis; experiment: Antibacterial activity against drug-sensitive 1 ug/ml Mycobacterium tuberculosis clinical isolate 821 assessed as growth inhibition after 7 days by microtiter plate assay; conditions: isolate 821, 168 h

Structure (SMILES): O=C(O)c1cn(-c2ccc(F)cc2)c2cc(N3CCNCC3)c(F)cc2c1=O [SARAFLOXACIN]
- zone of inhibition at 2 µg/mL [1]: 24 mm
- MIC [2]: 8 µg/mL (≈ 20.8 µM)
- MIC [3]: 16 µg/mL (≈ 41.5 µM)
- MIC [4]: 16 µg/mL (≈ 41.5 µM)
- zone of inhibition at 2 µg/mL [5]: 25 mm
- MIC [6]: 8 µg/mL (≈ 20.8 µM)
- zone of inhibition at 2 µg/mL [7]: 38 mm
- MIC [8]: 4 µg/mL (≈ 10.4 µM)
- zone of inhibition at 2 µg/mL [9]: < 5 mm
- MIC [10]: 16 µg/mL (≈ 41.5 µM)
- zone of inhibition at 2 µg/mL [11]: 20 mm
- MIC [12]: 8 µg/mL (≈ 20.8 µM)
- MIC [13]: 0.5 µg/mL (≈ 1.3 µM)
- MIC [14]: 2 µg/mL (≈ 5.19 µM)
- MIC [15]: 5.19 µM (≈ 2 µg/mL)
- MIC [16]: 8 µg/mL (≈ 20.8 µM)

From ChEMBL document CHEMBL3232938, “Design, synthesis, and biological evaluation of dihydroartemisinin-fluoroquinolone conjugates as a novel type of potential antitubercular agents” (2014)
